According to patent US8349823B2, “Treatment of renal cell carcinoma” (priority 2008, dated 2013):

Assays:
[1] = system: renal cancers not expressing the VHL gene; conditions: xenografted nude mice; cited from earlier work
[2] = system: renal cancer xenografts; conditions: xenografts in nude mice, in some cases; cited from earlier work
[3] = system: PUMA mRNA; assay: Quantitative PCR of apoptosis mediators in renal cancer cells: PUMA; format: cell-based, human; conditions: SKRC-52, vs control cells without orellanine
[4] = system: human renal carcinoma cells (SKRC-52); assay: Subcutaneous human renal cell carcinoma in athymic rats; format: in vivo
Excerpt: (§1) Athymic, T cell-deficient rats (RNU, Charles River Laboratories, FRG) are used as a system for in vivo-growth of human renal cell carcinomas. The absence of a T cell-based immune defense in these animals makes them tolerant towards xenografts. One week after arrival in the animal facility 10 animals receive an X-irradiation dosis of 5 Gy in order to suppress also their B cell-mediated response.
(§2) The next day, all animals are equipped with an indwelling catheter for peritoneal dialysis (PD). PD treatment will replace the renal function that is lost as a side-effect upon administration of orellanine.
(§3) One day later, 5 animals are inoculated subcutaneously in the shoulder region with approximately 10×10^6 human renal carcinoma cells (SKRC-52). The 5 remaining animals receive the same amount of cells by intravenous injection. […] At this point 2 animals (controls) in each group are injected i.p. with physiological saline solution and the remaining 3 animals receive 10 mg orellanine/kg b.w. i.p.

[5] = system: human renal cell carcinomas (SKRC-52, 786-0, SKRC-17, SKRC-7 and SKRC-21); assay: Viability of human renal cell carcinoma cells for 7 days after 24 h exposure to orellanine; format: cell-based; conditions: 400 μM orellanine for 24 h, then orellanine-free medium, observed six more days
Experimental: FIG. 1: Observation of the viability of cells from 5 different human renal cell carcinomas (primary tumors and metastases) during 7 days following 24 h of exposure to 400 μM orellanine (100 μg/ml culture medium. Viability is calculated by dividing the number of living cells in treated samples by the number of living cells in control samples (n=6). The gray area in the graph represents the period of orellanine incubation (24 h). The following days the cells were cultured in orellanine-free complete culture medium. The medium was changed at each viability measurement.
The pictures shown in FIGS. 2A and 2B were taken with the same magnification, and one week after incubation with orellanine/vehicle.
Cells harvested from 5 different human renal cell carcinomas (SKRC-52, 786-0, SKRC-17, SKRC-7 and SKRC-21), representing both mother tumors and metastatic growths, were cultured under standard conditions. When approximately 70% confluent and in rapid growth, the cells were exposed to medium containing Orellanine (400 μM) for 24 h.

[6] = system: human renal carcinoma cells (SKRC-52); assay: Intravenously inoculated human renal cell carcinoma in athymic rats; format: in vivo; conditions: 10 mg/kg i.p. then 5 mg/kg i.v. at one and two weeks; terminated another week later
Excerpt: as §1, §2, §3

[7] = system: renal carcinoma; assay: Treatment of a human patient with advanced renal cell carcinoma; format: in vivo; conditions: 10 daily i.v. injections of 280 mg (4 mg/kg), hemodialysis after each, further series as needed
Experimental: The initial tumor burden of the patient is determined to be approximately 2 kg. Based on this value, the appropriate daily dose is determined to 280 mg (4 mg/kg at b.w. 70 kg). Before the first injection, the patient is prepared for hemodialysis or peritoneal dialysis since the Orellanine treatment will inevitably destroy healthy renal epithelial tissue along with the killing of the cancer cells, thus leaving the patient without renal function. Two hours after each injection, hemodialysis is started and maintained for 2 hours. […] Optionally, if the disease is unilateral, the unaffected kidney may be surgically removed and preserved during the treatment, and reimplantation attempted after conclusion of the treatment. The progress of the patient is monitored for one month, whereafter additional serial administrations of Orellanine are given as needed to inhibit growth of the renal carcinoma.

[8] = system: human renal cell carcinoma 786-0; assay: Repeated administration of a lower dose of orellanine, viability; format: cell-based; conditions: for number of viable cells: viability 96 h after first dose
Experimental: FIG. 4: Effect of repeated administration of a lower dose of orellanine. […] The first case is equivalent to a prolonged exposure of the cells (48 h), whereas the cells in the second case have been allowed to recover in orellanine-free medium for two days between the doses. Viability was measured 96 h after addition of the first orellanine dose.
Cells harvested from the human renal cell carcinoma 786-0 were cultured under standard conditions. When approximately 70% confluent and in rapid growth, the cells were exposed to medium containing a low concentration of Orellanine (20 μg/ml) for 24 h. Then the medium was changed to new medium either containing 20 μg/ml orellanine for 24 h (middle bar) or back to regular, complete medium for 48 h, followed by another 24 h in the presence of 20 μg/ml orellanine (rightmost bar).

[9] = system: cortical renal tissue; conditions: healthy rats; cited from earlier work
[10] = Safety of i.v. orellanine during long term treatment with hemodialysis, pigs; conditions: 10 mg/kg initial, then 5 mg/kg after dialysis 3 times a week for 8 weeks
Experimental: (§4) 5 pigs of the Göttingen minipig strain and 5 dogs of mixed breeding (body weight 10-15 kg) are set up for hemodialysis using equipment designed for children and infants. The animals receive initial doses of 10 mg orellanine/kg b.w. 24 h later, the animals are subjected to a dialysis session of approximately 3 h. After dialysis, the animals are injected with 5 mg orellanine/kg b.w. The dialysis/reinjection procedure is repeated 3 times a week (Monday, Wednesday, Friday) for 8 weeks. Once a week an assessment of the animals' general condition is made. At the end of the experiment all animals are terminated, and specimens for histopathological evaluation are taken from heart, lung, kidney, liver, spleen, small intestine, large intestine, brain, muscle and skin.

[11] = system: phosphorylated ERK 1/2; assay: Western blot of apoptosis pathways in renal cancer cells: ERK 1/2; format: cell-based, human; conditions: 100 μg/ml, up to 24 h; 786-0
Experimental: (§5) For ERK 1/2 and p38, the ratios of phosphorylated (f) to total protein should be compared. Cleaved caspase 3 should be compared to the loading control, beta actin.
(§6) Renal cancer cells were cultured and exposed to orellanine according to Example 7 and harvested at various times up to 24 h. The p38 MAPK system, the p53 system, Fas Ligand, Tumor Necrosis Factor alpha (TNF) and cleaved caspase 3 are key factors in apoptotic pathways leading to cell death. Western blotting was used to determine intracellular levels of A) p38, B) cleaved caspase 3, and C) the proliferative factor phosphorylated ERK 1/2.

[12] = system: cell lines and primary cells from numerous human tissues (tubular epithelium, podocytes, mesangial cells, fibroblasts, macrophages, endothelium, intestinal …); assay: Effects of orellanine on other cell types, viability; format: cell-based; conditions: 24 h exposure, concentrations up to 1,000 μg/ml (highest achievable), observed six more days
Experimental: Cell lines and primary cells originated from numerous human tissues (tubular epithelium, podocytes and mesangial cells from renal tissue, fibroblasts, macrophages, aortic endothelium, microvascular endothelium and umbilical chord endothelium, intestinal epithelium (duodenal, jejunal, ileal and colonic) and chondrocytes) were cultured under standard conditions. When approximately 70% confluent and in stable growth, the cells were exposed for 24 h to medium containing orellanine in concentrations selected in order to achieve a dose response. […] To compensate for any growth retarding effects caused by dilution of the culture medium by the large volume of orellanine solution added, all cells were supplemented with equal volumes of orellanine buffer.

[13] = system: cleaved caspase 3; assay: Western blot of apoptosis pathways in renal cancer cells: cleaved caspase 3; format: cell-based, human; conditions: 24 h after exposure; 786-0
Experimental: as §5, §6

[14] = system: human renal cell carcinomas (786-0 and SKRC7); assay: Dose/response effect of orellanine on renal cell carcinoma cells; format: cell-based; conditions: single 24 h exposure
Experimental: Cells harvested from 2 different human renal cell carcinomas (SKRC-7, 786-0), representing both mother tumors and metastatic growths, were cultured under standard conditions. When approximately 70% confluent and in rapid growth, the cells were exposed to medium containing different concentrations of Orellanine […] for 24 h.

[15] = system: cdc2 protein; assay: Western blot of cell cycle proteins in renal cancer cells: cdc2; format: cell-based, human; conditions: 100 μg/ml, 24 h
Experimental: (§7) FIG. 5: Effects of orellanine on the cell cycle in renal cell carcinoma (786-0 and SKRC-52) (Western Blot).
(§8) Renal cancer cells, cultured essentially as described in Example 3, were treated with orellanin (100 μg/ml culture medium) for 24 h. During this period cells were harvested after 0, 2, 6 and 24 h exposure. Western blots were performed on the harvested material with antibodies directed against A) the kinase inhibitor p21, B) phosphorylated retinoblastoma protein (a growth stimulating factor), and C) the cdc2 protein which allows the cell to proceed into the M-phase of the cell cycle where the cell divides.

[16] = system: Fas ligand (FasL) mRNA; assay: Quantitative PCR of apoptosis mediators in renal cancer cells: Fas ligand; format: cell-based, human; conditions: SKRC-52, vs control cells without orellanine
[17] = system: human clear cell cancer (SKRC52); assay: Morphological signs of apoptosis during incubation with orellanine; format: cell-based; conditions: 4 h and 24 h incubation
[18] = system: kinase inhibitor p21; assay: Western blot of cell cycle proteins in renal cancer cells: p21; format: cell-based, human; conditions: 100 μg/ml, harvested 0, 2, 6, 24 h; 786-0 and SKRC-52
Experimental: as §7, §8

[19] = system: phosphorylated retinoblastoma protein; assay: Western blot of cell cycle proteins in renal cancer cells: phosphorylated Rb; format: cell-based, human; conditions: 100 μg/ml, 24 h measurement
Experimental: as §7, §8

[20] = Safety of i.v. orellanine during long term treatment with hemodialysis, dogs; conditions: 10 mg/kg initial, then 5 mg/kg after dialysis 3 times a week for 8 weeks
Experimental: as §4

[21] = system: Tumor Necrosis Factor alpha (TNF) mRNA; assay: Quantitative PCR of apoptosis mediators in renal cancer cells: TNF; format: cell-based, human; conditions: SKRC-52, vs control cells without orellanine
[22] = system: phosphorylated (activated) p38; assay: Western blot of apoptosis pathways in renal cancer cells: p38; format: cell-based, human; conditions: 100 μg/ml, 24-h observation period; 786-0
Experimental: as §5, §6

Structure (SMILES): CO[C@@H]1[C@H](O)C[C@@H](O[C@@H]2C[C@H](Oc3cc4cc5c(c(O)c4c(O)c3C)C(=O)[C@@H](O[C@H]3C[C@@H](O[C@H]4C[C@@H](O[C@H]6C[C@](C)(O)[C@@H](OC(C)=O)[C@H](C)O6)[C@H](O)[C@@H](C)O4)[C@H](O)[C@@H](C)O3)[C@H]([C@H](OC)C(=O)[C@@H](O)[C@@H](C)O)C5)O[C@H](C)[C@@H]2OC(C)=O)O[C@@H]1C [Chromomycin A3]
- tumor growth [1]: significantly retarded tumor growth

Structure (SMILES): Cc1cc(N(CCOS(C)(=O)=O)CCOS(C)(=O)=O)ccc1C=O [NSC-281612]
- effect on tumor mass [2]: apparently complete eradication of the tumor mass

Structure (SMILES): [O-][n+]1ccc(O)c(O)c1-c1c(O)c(O)cc[n+]1[O-] [Orellanine, 3,3′,4,4′-tetrahydroxy-2,2′-bipyridine-N,N′-dioxide]
- PUMA mRNA expression [3]: extreme up-regulation
- signs of the tumors ([4]; 10 mg/kg i.p. then 5 mg/kg into the tumor site, another 2 weeks later): no signs of the tumors are evident
- tumor size relative to the size recorded at the time of injection ([4]; 10 mg/kg i.p., two weeks after first injection): less than 25%
- reduction of tumor size ([4]; former control animals, 10 mg/kg into the tumor site, after 2 weeks): more than 75%
- toxicity to the tested cell types (viability) [5]: highly toxic to all the tested cell types
- tumor burden relative to control animals [6]: less than 10%
- renal cancer at the conclusion of the treatment [7]: completely eradicated
- toxic effects of repeated exposure ([8]; repeated exposure at lower limit of the single exposure response interval (20 μg/ml)): further, marked toxic effects
- number of viable cells ([8]; second dose 20 μg/ml 24 h after the first dose): strong decrease in the number of viable cells
- number of viable cells ([8]; second dose 20 μg/ml at 72 h): considerably smaller, but still significant, effect
- expression of several key antioxidant genes [9]: dramatically decreased expression
- oxidative stress in cortical renal tissue [9]: increased oxidative stress
- behavior and general condition [10]: remain normal
- histopathological examination [10]: no tissue damage with the exception of the kidneys where there is widespread tubular damage leading to complete renal failure
- phosphorylated ERK 1/2 [11]: up-regulation
- effects on viability [12]: None of the tested cell types exhibited any effects on viability
- amount of cleaved caspase-3 [13]: dramatically increased
- dose response interval (orellanine dose vs cell death) [14]: 5 to 200 µg/mL
- cdc2 protein level [15]: dramatically down-regulated
- FasL mRNA expression [16]: extreme up-regulation
- typical signs of apoptosis, vacuolization and cell shrinkage [17]: evident already after 4 h incubation, and are further aggravated after 24 h
- intracellular levels of p21 [18]: increased with a maximum around 6 h
- phosphorylated forms of the retinoblastoma protein [19]: completely lacking
- behavior and general condition [20]: remain normal
- histopathological examination [20]: no tissue damage with the exception of the kidneys where there is widespread tubular damage leading to complete renal failure
- TNF mRNA expression [21]: extreme up-regulation
- phosphorylated (activated) p38 [22]: steady increase
